Values quoted from earlier work, collected in article PMC9788431, “Combination of Docking-Based and Pharmacophore-Based Virtual Screening Identifies Novel Agonists That Target the Urotensin Receptor” (Molecules, 2022).
Values joined by “and” are separate entries in the source; they are usually repeats but may differ in a detail not shown here. Equal entries are not always repeated.

Molecular target: T1, UT receptor (Homo sapiens, UniProt Q9UKP6)
T1 construct: SNAP-tag; expressed in transfected cells; host or cells: 293A8 (HEK293A stably transfected with the UT receptor); inferred, the calcium-assay paragraph names no cells
T1 sequence (Q9UKP6 1-389): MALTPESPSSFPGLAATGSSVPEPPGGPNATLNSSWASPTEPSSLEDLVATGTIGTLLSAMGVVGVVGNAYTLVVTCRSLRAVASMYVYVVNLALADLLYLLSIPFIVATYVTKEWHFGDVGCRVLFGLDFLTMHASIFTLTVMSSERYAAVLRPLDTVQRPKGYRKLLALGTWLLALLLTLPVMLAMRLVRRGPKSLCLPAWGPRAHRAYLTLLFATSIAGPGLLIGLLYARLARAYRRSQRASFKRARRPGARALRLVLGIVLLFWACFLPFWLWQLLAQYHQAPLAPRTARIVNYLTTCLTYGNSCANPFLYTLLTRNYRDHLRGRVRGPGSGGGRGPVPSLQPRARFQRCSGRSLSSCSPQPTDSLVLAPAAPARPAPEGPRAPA
Design: method as in ChEMBL database and others
Conditions: antagonist; Table S1 benchmarking ligands; ref ChEMBL database and others; cited from earlier work

| Compound | IC50 |
| --- | --- |
| COc1ccc([C@@H](CCCNS(=O)(=O)c2cccs2)N2Cc3c(cccc3N3CCN(C(C)C)CC3)C2=O)cc1OC [CHEMBL568637] | 53 nM |
| COc1ccc([C@@H](CCCNC(=O)c2cnoc2C)N2C(=O)c3cccc(N4CCN([C@H](C)c5ccccc5)CC4)c3C2=O)cc1OC [CHEMBL568764] | 760 nM |
| CCN1CCN(c2cccc3c2CN([C@H](CCCN(C)S(=O)(=O)c2cccs2)c2ccc(OC)c(OC)c2)C3=O)CC1 [CHEMBL571535] | 88 nM |
| COc1ccc([C@@H](CCCN(C)S(=O)(=O)c2cccs2)N2Cc3c(cccc3N3CCN(C4CCC4)CC3)C2=O)cc1OC [CHEMBL571537] | 510 nM |
| COc1ccc([C@@H](CCCN(C)S(=O)(=O)c2cccs2)N2Cc3c(cccc3N3CCN(C(C)C)CC3)C2=O)cc1OC [CHEMBL578203] | 500 nM |
| CCN1CCN(c2cccc3c2CN([C@H](CCCNS(=O)(=O)c2c[nH]cn2)c2ccc(OC)c(OC)c2)C3=O)CC1 [CHEMBL578207] | 51 nM |
| COc1cc2c(cc1OC)C(CCc1cc(F)ccc1F)N(CCNC(=O)Nc1cc(C)nc3ccccc13)CC2 (stereo not shown) [CHEMBL1163360] | 67 nM |
| Cc1cc(NC(=O)NCCN2CCC(O)(Cc3ccccc3)CC2)c2ccccc2n1 [CHEMBL1164032] | 3.6 nM |
| COc1cc(Br)c(S(=O)(=O)Nc2ccc(Cl)c(O[C@@H]3CCN(C)C3)c2)cc1OC [CHEMBL2348501] | 43 nM |
| COc1cc(Br)c([S+]([O-])Cc2ccc(Cl)c(O[C@@H]3CCN(C)C3)c2)cc1OC (stereo partly shown) [CHEMBL2348504] | 245 nM |
| COc1cc(Br)c(SCc2ccc(Cl)c(O[C@@H]3CCN(C)C3)c2)cc1OC [CHEMBL2348505] | 440 nM |
| COc1cc(Br)c(CNc2ccc(C(F)(F)F)c(O[C@H]3CCN(C)C3)c2)cc1OC [CHEMBL2348511] | 191 nM |
| CN1CC[C@H](Oc2cc(NCc3ccccc3Br)ccc2C(F)(F)F)C1 [CHEMBL2348514] | 821 nM |
| CN(C)CCOc1cc(NCc2ccccc2C(F)(F)F)ccc1Cl [CHEMBL2348515] | 520 nM and 765 nM |
| COc1cccc(CNc2ccc(C(F)(F)F)c(O[C@H]3CCN(C)C3)c2)c1 [CHEMBL2348517] | 691 nM |
| CN1CC[C@H](Oc2cc(NCc3c(Br)ccc4c3OCO4)ccc2C(F)(F)F)C1 [CHEMBL2348518] | 620 nM |
| COc1cc(Br)c(S(=O)(=O)Nc2ccc(C(F)(F)F)c(OCCN(C)C)c2)cc1OC [CHEMBL2348523] | 100 nM |
| COc1cc(Br)c(S(=O)(=O)Nc2ccc(C(F)(F)F)c(OCCN3CCN(C)CC3)c2)cc1OC [CHEMBL2348527] | 840 nM |
| CC(C)[C@H](NC(=O)[C@@H]1CSSC[C@H](NC(=O)[C@H](C)N)C(=O)N[C@@H](Cc2ccccc2)C(=O)N[C@@H]2Cc3c([nH]c4ccccc34)CN(C2=O)[C@@H](CCCCN)C(=O)N[C@@H](Cc2ccc(O)cc2)C(=O)N1)C(=O)O [CHEMBL3104461] | 60 nM |
| CC(C)[C@H](NC(=O)[C@@H]1CSSC[C@H](NC(=O)[C@H](C)N)C(=O)N[C@@H](Cc2ccccc2)C(=O)N[C@@H](c2ccccc2)C(=O)N[C@@H](CCCCN)C(=O)N[C@@H](Cc2ccc(O)cc2)C(=O)N1)C(=O)O [CHEMBL3104462] | 29.5 nM |
| CC(C)[C@H](NC(=O)[C@@H]1CSSC[C@H](NC(=O)[C@H](C)N)C(=O)N[C@@H](Cc2ccccc2)C(=O)N[C@H](c2ccccc2)C(=O)N[C@@H](CCCCN)C(=O)N[C@@H](Cc2ccc(O)cc2)C(=O)N1)C(=O)O [CHEMBL3104463] | 27.5 nM |
| CC(C)[C@H](NC(=O)[C@@H]1CSSC[C@H](NC(=O)[C@H](C)N)C(=O)N[C@@H](Cc2ccccc2)C(=O)N2CCc3ccccc3[C@H]2C(=O)N[C@@H](CCCCN)C(=O)N[C@@H](Cc2ccc(O)cc2)C(=O)N1)C(=O)O [CHEMBL3104464] | 10 nM |
| CC(C)[C@H](NC(=O)[C@@H]1CSSC[C@H](NC(=O)[C@H](C)N)C(=O)N[C@@H](Cc2ccccc2)C(=O)N2CCc3ccccc3[C@@H]2C(=O)N[C@@H](CCCCN)C(=O)N[C@@H](Cc2ccc(O)cc2)C(=O)N1)C(=O)O [CHEMBL3104465] | 21 nM |
| CC(C)[C@H](NC(=O)[C@@H]1CSSC[C@H](NC(=O)[C@H](C)N)C(=O)N[C@@H](Cc2ccccc2)C(=O)N2Cc3ccccc3C[C@@H]2C(=O)N[C@@H](CCCCN)C(=O)N[C@@H](Cc2ccc(O)cc2)C(=O)N1)C(=O)O [CHEMBL3104467] | 88 nM |
| CC(C)[C@H](NC(=O)[C@@H]1CSSC[C@H](NC(=O)[C@H](C)N)C(=O)N[C@@H](Cc2ccccc2)C(=O)N[C@@H](Cc2c[nH]c3ccccc23)C(=O)N[C@@H](CCCCN)C(=O)N[C@@H](Cc2ccc(O)cc2)C(=O)N1)C(=O)O [CHEMBL3104471] | 12 nM |
| CC(C)[C@H](NC(=O)[C@@H]1CSSC[C@H](NC(=O)[C@H](C)N)C(=O)N[C@@H](Cc2ccccc2)C(=O)N[C@@H](Cc2cccc3ccccc23)C(=O)N[C@@H](CCCCN)C(=O)N[C@@H](Cc2ccc(O)cc2)C(=O)N1)C(=O)O [CHEMBL3104637] | 17 nM |
| CC(C)[C@H](NC(=O)[C@@H]1CSSC[C@H](NC(=O)[C@H](C)N)C(=O)N[C@@H](Cc2ccccc2)C(=O)N[C@H](Cc2cccc3ccccc23)C(=O)N[C@@H](CCCCN)C(=O)N[C@@H](Cc2ccc(O)cc2)C(=O)N1)C(=O)O [CHEMBL3104638] | 46 nM |
| CC(C)[C@H](NC(=O)[C@@H]1CSSC[C@H](NC(=O)[C@H](C)N)C(=O)N[C@@H](Cc2ccccc2)C(=O)N[C@@H](Cc2ccc(I)cc2)C(=O)N[C@@H](CCCCN)C(=O)N[C@@H](Cc2ccc(O)cc2)C(=O)N1)C(=O)O [CHEMBL3104639] | 58 nM |

| Compound | IC50 |
| --- | --- |
| CC(C)[C@H](NC(=O)[C@@H]1CSSC[C@H](NC(=O)[C@H](C)N)C(=O)N[C@@H](Cc2ccccc2)C(=O)N[C@@H](C(c2ccccc2)c2ccccc2)C(=O)N[C@@H](CCCCN)C(=O)N[C@@H](Cc2ccc(O)cc2)C(=O)N1)C(=O)O [CHEMBL3104643] | 277 nM |
| Cn1ccc2c(NC(=O)NCCN3CCC(O)(Cc4ccccc4)CC3)ccnc21 [CHEMBL3358667] | 160 nM |
| O=C(NCCN1CCC(O)(Cc2ccccc2)CC1)Nc1ccnc2ccoc12 [CHEMBL3358671] | 450 nM |
| O=C(NCCN1CCC(O)(Cc2ccccc2)CC1)Nc1ccnc2sccc12 [CHEMBL3358673] | 930 nM |
| Cc1cc2nccc(NC(=O)NCCN3CCC(O)(Cc4ccccc4)CC3)c2s1 [CHEMBL3358674] | 78 nM |
| Cc1cc(NC(=O)NCCN2CCC(O)(Cc3ccccc3)CC2)c2sccc2n1 [CHEMBL3358679] | 26 nM |
| CCc1cc(NC(=O)NCCN2CCC(O)(Cc3ccccc3)CC2)c2sccc2n1 [CHEMBL3358680] | 60 nM |
| Cc1ccccc1CC1(O)CCN(CCNC(=O)Nc2ccnc3ccsc23)CC1 [CHEMBL3358682] | 20 nM |
| Cc1cccc(CC2(O)CCN(CCNC(=O)Nc3ccnc4ccsc34)CC2)c1 [CHEMBL3358683] | 140 nM |
| Cc1ccc(CC2(O)CCN(CCNC(=O)Nc3ccnc4ccsc34)CC2)cc1 [CHEMBL3358684] | 190 nM |
| O=C(NCCN1CCC(O)(Cc2ccccc2Br)CC1)Nc1ccnc2ccsc12 [CHEMBL3358685] | 20 nM |
| O=C(NCCN1CCC(O)(Cc2cccc(Br)c2)CC1)Nc1ccnc2ccsc12 [CHEMBL3358686] | 42 nM |
| O=C(NC1CCN(Cc2ccc(OC3CCNCC3)c(Br)c2)CC1)c1cc2cc(Cl)ccc2s1 [CHEMBL3896625] | 51 nM |
| Cc1ccc(-c2ccc3cc(C(=O)NC4CCN(Cc5ccc(OC6CCNCC6)c(Br)c5)CC4)sc3c2)cc1 [CHEMBL3898238] | 140 nM |
| O=C(NC1CCN(Cc2ccc(OC3CCNCC3)c(Br)c2)CC1)c1cc2cc(C(F)(F)F)ccc2s1 [CHEMBL3906682] | 100 nM |
| O=C(NC1CCN(Cc2ccc(OC3CCNCC3)c(Br)c2)CC1)c1cc2ccc(-c3ccc(Cl)cc3)cc2s1 [CHEMBL3907266] | 140 nM |
| COc1ccccc1-c1ccc2cc(C(=O)NC3CCN(Cc4ccc(OC5CCNCC5)c(Br)c4)CC3)sc2c1 [CHEMBL3915656] | 560 nM |
| O=C(NC1CCN(Cc2ccc(OC3CCNCC3)c(Br)c2)CC1)c1cc2cc(Br)ccc2s1 [CHEMBL3915670] | 86 nM |
| O=C(NC1CCN(Cc2ccc(OC3CCNCC3)c(Br)c2)CC1)c1cnccn1 [CHEMBL3920751] | 610 nM |
| O=C(NC1CCN(Cc2ccc(OC3CCNCC3)c(Br)c2)CC1)c1cc2cc(F)ccc2s1 [CHEMBL3924660] | 53 nM |
| O=C(NC1CCN(Cc2ccc(OC3CCNCC3)c(Br)c2)CC1)c1ccco1 [CHEMBL3942137] | 770 nM |
| O=C(NC1CCN(Cc2ccc(OC3CCNCC3)c(Br)c2)CC1)c1cc2cc(-c3ccccc3)ccc2s1 [CHEMBL3949719] | 310 nM |
| COc1ccc2sc(C(=O)NC3CCN(Cc4ccc(OC5CCNCC5)c(Br)c4)CC3)cc2c1 [CHEMBL3957806] | 100 nM |
| Cc1ccc2sc(C(=O)NC3CCN(Cc4ccc(OC5CCNCC5)c(Br)c4)CC3)cc2c1 [CHEMBL3968841] | 74 nM |
| N#Cc1ccc2sc(C(=O)NC3CCN(Cc4ccc(OC5CCNCC5)c(Br)c4)CC3)cc2c1 [CHEMBL3977330] | 25 nM |
| O=C(NC1CCN(Cc2ccc(OC3CCNCC3)c(Br)c2)CC1)c1cccs1 [CHEMBL3979822] | 130 nM |
| COc1cccc(-c2ccc3cc(C(=O)NC4CCN(Cc5ccc(OC6CCNCC6)c(Br)c5)CC4)sc3c2)c1 [CHEMBL3987058] | 87 nM |
